For series [1], the target named is c-Jun N-terminal kinase (Mus musculus) (UniProt Q91Y86+Q9WTU6+Q61831). Description: Inhibition of LPS-induced JNK phosphorylation in BALB/c mouse at 30 mg/kg administered 6 hrs after LPS stimulation by western blot analysis. It is filed as organism-based.
Series [2] deals with Mus musculus. Description: Antiinflammatory activity in BALB/c mouse model of LPS-induced acute respiratory distress syndrome assessed as reduction in monocytes in peripheral blood at 30 mg/kg administered 6 hrs after LPS-stimulation and measured after 24 hrs by Diff-quick stain based analysis. It is filed as functional, organism-based.
In series [3] the test system is Mus musculus. Description: Antiinflammatory activity in BALB/c mouse model of LPS-induced acute respiratory distress syndrome assessed as reduction in collagen deposition in lung parenchyma at 30 mg/kg administered 6 hrs after LPS-stimulation and measured after 24 hrs by pointing-count technique based immunohistochemistry analysis. It is filed as functional, organism-based.

The test system of series [4] is Mus musculus. Description: Antiinflammatory activity in BALB/c mouse model of LPS-induced acute respiratory distress syndrome assessed as reduction in macrophages in BALF at 30 mg/kg administered 6 hrs after LPS-stimulation by Diff-quick stain based analysis. Type of series: functional, organism-based.
Series [5] concerns Mus musculus. Description: Antiinflammatory activity in BALB/c mouse model of LPS-induced acute respiratory distress syndrome assessed as reduction in density of MMP-9 positive cells in lung parenchyma at 30 mg/kg administered 6 hrs after LPS-stimulation by pointing-count technique based immunohistochemistry analysis. It is filed as functional, organism-based.
In series [6] the test system is Mus musculus. Description: Antiinflammatory activity in BALB/c mouse model of LPS-induced acute respiratory distress syndrome assessed as reduction in inflammatory cells in alveolar septa at 30 mg/kg administered 6 hrs after LPS-stimulation. It is filed as functional, organism-based.
Series [7] deals with Mus musculus. Description: Antiinflammatory activity in BALB/c mouse model of LPS-induced acute respiratory distress syndrome assessed as reduction in 9-iso-PGF2alpha expression in alveolar septa at 30 mg/kg administered 6 hrs after LPS-stimulation and measured after 24 hrs by pointing-count technique based immunohistochemistry analysis. It is filed as functional, organism-based.

Series [8] concerns Mus musculus. Description: Antiinflammatory activity in BALB/c mouse model of LPS-induced acute respiratory distress syndrome assessed as improvement in lung mechanics by measuring respiratory system elastance at 30 mg/kg administered 6 hrs after LPS-stimulation and measured after 24 hrs by forced oscillation technique. Type of series: functional, organism-based.
In series [9] the test system is Mus musculus. Description: Antiinflammatory activity in BALB/c mouse model of LPS-induced acute respiratory distress syndrome assessed as reduction in lymphocytes in peripheral blood at 30 mg/kg administered 6 hrs after LPS-stimulation and measured after 24 hrs by Diff-quick stain based analysis. It is filed as functional, organism-based.
Series [10] relates to Mus musculus. Description: Antiinflammatory activity in BALB/c mouse model of LPS-induced acute respiratory distress syndrome assessed as reduction in neutrophils in peripheral blood at 30 mg/kg administered 6 hrs after LPS-stimulation and measured after 24 hrs by Diff-quick stain based analysis. It is filed as functional, organism-based.
Series [11] concerns Mus musculus. Description: Antiinflammatory activity in BALB/c mouse model of LPS-induced acute respiratory distress syndrome assessed as reduction in neutrophils in BALF at 30 mg/kg administered 6 hrs after LPS-stimulation by Diff-quick stain based analysis. Type of series: functional, organism-based.
Series [12] deals with Mus musculus. Description: Antiinflammatory activity in BALB/c mouse model of LPS-induced acute respiratory distress syndrome assessed as improvement in lung mechanics by measuring tissue elastance at 30 mg/kg administered 6 hrs after LPS-stimulation and measured after 24 hrs by forced oscillation technique. Type of series: functional, organism-based.
Series [13] deals with Mus musculus. Description: Antiinflammatory activity in BALB/c mouse model of LPS-induced acute respiratory distress syndrome assessed as improvement in lung mechanics by measuring respiratory system resistance at 30 mg/kg administered 6 hrs after LPS-stimulation and measured after 24 hrs by forced oscillation technique. It is filed as functional, organism-based.
Series [14] deals with Mus musculus. Description: Antiinflammatory activity in BALB/c mouse model of LPS-induced acute respiratory distress syndrome assessed as reduction in leukocytes in peripheral blood at 30 mg/kg administered 6 hrs after LPS-stimulation and measured after 24 hrs by Neubauer counting chamber based analysis. Type of series: functional, organism-based.
In series [15] the test system is Mus musculus. Description: Antiinflammatory activity in BALB/c mouse model of LPS-induced acute respiratory distress syndrome assessed as reduction in IL-1beta level in BALF at 30 mg/kg administered 6 hrs after LPS-stimulation by ELISA. It is filed as functional, organism-based.
Series [16] has as its system Mus musculus. Description: Antiinflammatory activity in BALB/c mouse model of LPS-induced acute respiratory distress syndrome assessed as reduction in density of TIMP-1 positive cells in lung parenchyma at 30 mg/kg administered 6 hrs after LPS-stimulation by pointing-count technique based immunohistochemistry analysis. It is filed as functional, organism-based.
Series [17] has as its system Mus musculus. Description: Antiinflammatory activity in BALB/c mouse model of LPS-induced acute respiratory distress syndrome assessed as reduction in polymorphonuclear cells in alveolar septa at 30 mg/kg administered 6 hrs after LPS-stimulation by pointing-count technique. It is filed as functional, organism-based.
The test system of series [18] is Mus musculus. Description: Antiinflammatory activity in BALB/c mouse model of LPS-induced acute respiratory distress syndrome assessed as improvement in lung mechanics by measuring tissue damping at 30 mg/kg administered 6 hrs after LPS-stimulation and measured after 24 hrs by forced oscillation technique. It is filed as functional, organism-based.
In series [19] the test system is Mus musculus. Description: Antiinflammatory activity in BALB/c mouse model of LPS-induced acute respiratory distress syndrome assessed as reduction in total inflammatory cells in BALF at 30 mg/kg administered 6 hrs after LPS-stimulation by Diff-quick stain based analysis. It is filed as functional, organism-based.
Series [20] deals with Mus musculus. Description: Antiinflammatory activity in BALB/c mouse model of LPS-induced acute respiratory distress syndrome assessed as reduction in neutrophils in BALF at 20 to 60 mg/kg administered 6 hrs after LPS-stimulation. Type of series: functional, organism-based. As to conditions: dose 20-60 mg/kg.
Series [21] deals with Mus musculus. Description: Antiinflammatory activity in BALB/c mouse model of LPS-induced acute respiratory distress syndrome assessed as reduction in iNOS expression in alveolar septa at 30 mg/kg administered 6 hrs after LPS-stimulation and measured after 24 hrs by pointing-count technique based immunohistochemistry analysis. Type of series: functional, organism-based.
For series [22], the system named is Mus musculus. Description: Antiinflammatory activity in BALB/c mouse model of LPS-induced acute respiratory distress syndrome assessed as reduction in IL-6 level in BALF at 30 mg/kg administered 6 hrs after LPS-stimulation by ELISA. It is filed as functional, organism-based. (In general: An ELISA detects its analyte on a solid surface through an enzyme-linked reagent.)

In series [23] the test system is Mus musculus. Description: Antiinflammatory activity in BALB/c mouse model of LPS-induced acute respiratory distress syndrome assessed as reduction in pulmonary edema by measuring wet/dry weight ratio at 30 mg/kg administered 6 hrs after LPS-stimulation and measured after […]. Type of series: functional, organism-based.
Series [24] deals with Mus musculus. Description: Toxicity in BALB/c mouse model of LPS-induced acute respiratory distress syndrome assessed as reduction in body mass loss percentage at 30 mg/kg administered 6 hrs after LPS-stimulation. It is filed as organism-based. As to conditions: in vivo.
Series [25] deals with Mus musculus. Description: Antiinflammatory activity in BALB/c mouse model of LPS-induced acute respiratory distress syndrome assessed as reduction in TNF-alpha level in BALF at 30 mg/kg administered 6 hrs after LPS-stimulation by ELISA. Type of series: functional, organism-based.

Structures are written as SMILES. The source made the active and inactive calls. The rule behind the calls is not given here.

Chain of c-Jun N-terminal kinase (Mus musculus) (Q61831 whole entry, looked up): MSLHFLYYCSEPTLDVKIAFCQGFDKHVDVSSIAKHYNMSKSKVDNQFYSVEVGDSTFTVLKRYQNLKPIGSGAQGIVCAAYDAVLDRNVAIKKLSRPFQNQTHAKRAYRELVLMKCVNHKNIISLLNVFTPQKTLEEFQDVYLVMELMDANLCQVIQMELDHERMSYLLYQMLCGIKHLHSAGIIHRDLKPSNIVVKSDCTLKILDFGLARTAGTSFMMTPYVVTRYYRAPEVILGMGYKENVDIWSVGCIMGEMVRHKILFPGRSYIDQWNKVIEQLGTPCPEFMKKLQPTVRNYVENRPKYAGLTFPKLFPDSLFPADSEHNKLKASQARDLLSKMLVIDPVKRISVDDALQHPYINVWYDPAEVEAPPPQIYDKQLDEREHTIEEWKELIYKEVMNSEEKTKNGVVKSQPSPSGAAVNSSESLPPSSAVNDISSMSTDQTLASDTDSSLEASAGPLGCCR
Chain of c-Jun N-terminal kinase (Mus musculus) (Q91Y86 whole entry, looked up): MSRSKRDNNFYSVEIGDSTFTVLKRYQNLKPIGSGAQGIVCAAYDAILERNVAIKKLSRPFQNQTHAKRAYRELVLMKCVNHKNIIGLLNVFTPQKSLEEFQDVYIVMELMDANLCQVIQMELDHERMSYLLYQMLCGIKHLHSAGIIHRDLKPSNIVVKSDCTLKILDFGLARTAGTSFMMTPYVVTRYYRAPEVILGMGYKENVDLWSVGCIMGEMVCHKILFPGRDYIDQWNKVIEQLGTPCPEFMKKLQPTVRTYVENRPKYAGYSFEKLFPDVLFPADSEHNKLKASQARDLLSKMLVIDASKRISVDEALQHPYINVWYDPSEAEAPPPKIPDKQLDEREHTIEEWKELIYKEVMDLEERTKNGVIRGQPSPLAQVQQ
Chain of c-Jun N-terminal kinase (Mus musculus) (Q9WTU6 whole entry, looked up): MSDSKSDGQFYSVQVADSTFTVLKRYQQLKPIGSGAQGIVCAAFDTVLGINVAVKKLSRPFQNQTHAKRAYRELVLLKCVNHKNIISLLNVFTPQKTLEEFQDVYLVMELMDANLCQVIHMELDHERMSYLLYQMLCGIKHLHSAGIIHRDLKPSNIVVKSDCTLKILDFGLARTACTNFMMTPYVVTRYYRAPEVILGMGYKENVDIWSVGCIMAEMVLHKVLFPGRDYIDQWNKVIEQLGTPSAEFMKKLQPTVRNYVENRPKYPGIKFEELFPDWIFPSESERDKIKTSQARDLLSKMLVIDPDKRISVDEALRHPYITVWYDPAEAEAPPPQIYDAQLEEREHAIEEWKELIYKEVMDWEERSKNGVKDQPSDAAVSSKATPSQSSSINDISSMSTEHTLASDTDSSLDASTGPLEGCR

Turning to `C=CCc1ccc(Oc2cc(CC=C)cc(OC)c2O)c(OC)c1`, the inhibition result in series [1] was “Active”.
Turning to `C=CCc1ccc(O)c(OC)c1` [EUGENOL], the outcome in the series on Mus musculus [2], with Mus musculus [3], with Mus musculus [4], with Mus musculus [5], in the series on Mus musculus [6] and in the series with Mus musculus [7] was Active. The result in the series on Mus musculus [8], in the series with Mus musculus [9], in the series with Mus musculus [10], in the series with Mus musculus [11], in the series on Mus musculus [12] and with Mus musculus [14] was Active. The result with Mus musculus [15], with Mus musculus [16], in the series on Mus musculus [17], with Mus musculus [18], in the series with Mus musculus [19] and with Mus musculus [20] was Active. Further, the result with Mus musculus [21], with Mus musculus [22] and in the series on Mus musculus [23] was Active. Further, the result in the series on Mus musculus [13] and in the series on Mus musculus [25] was inactive. Further, the Activity entry in the series on Mus musculus [24] is reported as “Non-Toxic”. In addition, the inhibition entry in series [1] is “Active”.

The record behind these values is ChEMBL document CHEMBL5053489, “Effects of Eugenol and Dehydrodieugenol B from Nectandra leucantha against Lipopolysaccharide (LPS)-Induced Experimental Acute Lung Inflammation” (J Nat Prod, 2021).
